According to patent US4569937A, “Analgesic mixture of oxycodone and ibuprofen” (priority 1985, dated 1986):
Like-named read-outs stand apart in the source and are kept apart here.

Tested on: phenyl-p-benzoquinone induced writhing in mice
Type: in vivo, mice (male CF1)
Conditions: oral, N=43 mice/dose; for % MICE BLOCKED: 5 min

Row | Compound | % MICE BLOCKED (ibuprofen 2.25 mg/kg) | % MICE BLOCKED (ibuprofen 4.49 mg/kg) | % MICE BLOCKED (ibuprofen 8.98 mg/kg) | % MICE BLOCKED (ibuprofen 17.96 mg/kg) | ED50 AT 5 MIN, Ibuprofen (95% Confidence Limits) (ibuprofen part of the ED50 dose (alone or at fixed ratio oxycodone:ibuprofen)) | % MICE BLOCKED (oxycodone HCl 0.36 mg/kg) | % MICE BLOCKED (oxycodone HCl 0.72 mg/kg) | % MICE BLOCKED (oxycodone HCl 1.44 mg/kg) | % MICE BLOCKED (oxycodone HCl 2.88 mg/kg) | % MICE BLOCKED (oxycodone HCl 5.76 mg/kg) | ED50 AT 5 MIN, Oxycodone (95% Confidence Limits) (oxycodone HCl part of the ED50 dose (alone or at fixed ratio oxycodone:ibuprofen))
1 | CC(C)Cc1ccc(C(C)C(=O)O)cc1 (stereo not drawn) [Ibuprofen, α-methyl-4-(2-methylpropyl)benzeneacetic acid] | 7.0% | 11.6% | 20.1% | 62.8% | 15.8 mg/kg |  |  |  |  |  | 
2 | COc1ccc2c3c1O[C@H]1C(=O)CC[C@@]4(O)[C@@H](C2)N(C)CC[C@]314 [Oxycodone] |  |  |  |  |  | 11.6% | 4.7% | 39.5% | 81.4% | 95.3% | 1.88 mg/kg
